Reference: patent US20090215713A1, “Use of atp for the manufacture of a medicament for the prevention and treatment of oxidative stress and related conditions” (priority 2004, published 2009)
Entries after “also recorded” stand apart in the source; their conditions may differ.

What was measured:
TNFα = TNFα secretion in whole blood after γ-irradiation; type: cell-based; details: 300 μM ATP, 16 Gy, 3 and 5 h post-irradiation
Method: FIG. 18 Effect of ATP on cytokine secretion in whole blood after γ-irradiation. Blood was pre-incubated with 300 μM ATP or medium (control) for 30 minutes and then irradiated with γ-radiation (16 Gy).
Samples with 5 ml of blood were pre-incubated with 300 μM ATP or medium (control) for 30 minutes. Then, at t=0, each blood sample was irradiated with γ-radiation at a dose of 16 Gy. Preceding irradiation (baseline) and at 1 h, 3 h and 5 h post-irradiation, a sample was taken for analysis of intracellular GSH and GSH/GSSG ratios according to standard methods, as well as for cytokine analysis by the ELISA method.

[1] = Randomized ATP infusions in non-small-cell lung cancer patients, stage IIIB and IV; type: in vivo, human
Method: Patients with non-small-cell lung cancer, stage IIIB and IV, in the palliative treatment stage, were randomized to receive either ATP infusions (total of 10 infusions over 24 weeks) or no treatment. Outcome assessment (quality of life, blood values) was performed at regular intervals.

[2] = Side effects of intravenous ATP infusions; type: in vivo, human; details: over 60 home infusions in cancer patients
Method: For reasons of patients' safety, there has been no attempt to administer ATP outside a strict medical setting to date. In particular, WO 03/061568 (Rapaport) discloses the administration of ATP over a period of typically 8-10 hours in an outpatient setting within the hospital. […] Thus, both our data and US 2003/0109486 contradict the disclosure of WO 03/061568.
In order to determine the tolerance for ATP as well as the maximally tolerated dose of ATP, the first ATP infusion is preferably administered under medical supervision, usually in an in- or outpatient setting. Subsequent infusions can either be started at the hospital day care centre, at private homes, nursing homes, etc. according to a standardized protocol.

TNF-α = assay: LPS+PHA-induced TNF-α secretion in whole blood under oxidative stress (H2O2); type: cell-based, human
Method: FIG. 10 Effect of ATP on LPS+PHA-induced TNF-α secretion in whole blood from healthy subjects under conditions of oxidative stress. Two concentrations of H2O2 (1 and 10 mM) were added to whole blood, followed by the incubation with the concentrations of ATP. Then, blood was exposed to 10 μg/ml LPS and 1 μg/ml PHA, and incubated for 24 h. The TNF-α released into the supernatants was analyzed using the ELISA method. […] Data are expressed as the mean values; error bars represent SEM.
(§1) Whole blood of healthy subjects was collected as described for Experiment 2, and pre-incubated with 1 or 10 mM H2O2 at 5% CO2 and 37° C. for 15 min. Then, ATP was added to the blood at final concentrations of 1-300 μM for the 30 min incubation step, and then incubated as in Experiment 2 with LPS/PHA for 24 hours.

[3] = system: guinea pig alveolar macrophages; assay: Guinea pig alveolar macrophages incubated with LPS and spin-trap DMPO; type: cell-based
Excerpt: As mentioned above, ATP is known to enhance the oxidative burst of neutrophils and other phagocytic cells. […] In a study using guinea pig alveolar macrophages (according to (35, 36)) we confirmed the ATP dependent increase in H2O2 formation. […] This finding underlines the importance and practical relevance of the present invention that ATP attenuates of hydroxyl radical DMPO adduct formation in a more chemically oriented set-up. Our finding that the formation of the DMPO—OH adducts is inhibited by the presence of ATP, also in incubations with alveolar macrophages, is of great promise for the protective effect of ATP in diseases and conditions in which oxidative stress plays a predominant role, as discussed on the previous pages.

IL-6 [4] = assay: LPS+PHA-induced IL-6 secretion in whole blood from healthy subjects (ELISA); type: cell-based, human; details: indicated ATP concentrations, 24 h
Method: FIG. 9 Effect of ATP on LPS+PHA-induced IL-6 secretion in whole blood from healthy subjects. The whole blood was exposed to 10 μg/ml LPS and 1 μg/ml PHA with indicated concentrations of ATP for 24 h. The IL-6 released into the supernatants was analyzed using the ELISA method. Results are expressed in percentage, 100% being the IL-6 release under stimulation by LPS+PHA without ATP. […] Data are expressed at the mean values; error bars represent SEM.
Blood was collected from 8 healthy subjects in heparin containing vacutainer tubes. All incubations were performed in duplicate. ATP was dissolved in RPMI 1640 culture medium, at a final concentration of 1-300 μM, and blood pre-incubated with ATP at 5% CO2 at 37 DC for 30 min. After stimulation with LPS en PHA (10 and 1 μg/ml final concentration, respectively), the plates were incubated in 5% CO2 at 37° C. for 24 h. Cell-free supernatant fluids were then collected by centrifugation (6000 rpm, 10 min at 4° C.) and stored at −20° C. until tested for presence of cytokines. All cytokines were quantified by means of PeliKine Compact human ELISA kits (CLB/Sanquin, The Netherlands), based on appropriate and validated sets of monoclonal antibodies.

[5] = cited from earlier work
IL-6 [6] = assay: LPS+PHA-induced IL-6 secretion in whole blood under oxidative stress (H2O2); type: cell-based, human; details: absence or presence of H2O2 (1 and 10 mM)
Method: FIG. 12 Effect of ATP on LPS+PHA-induced IL-6 secretion in whole blood from healthy subjects under conditions of oxidative stress. Two concentrations of H2O2 (1 and 10 mM) were added to whole blood, together with the indicated concentrations of ATP. Then, blood was exposed to 10 μg/ml LPS and 1 μg/ml PHA, and incubated for 24 h. The IL-6 released into the supernatants was analyzed using the ELISA method. […] Data are expressed at the mean values; error bars represent SEM.
as §1

[7] = ESR measurement of DMPO—OH spin adducts during Fenton chemistry; type: biochemical
Method: The effect of ATP on the formation or scavenging of hydroxyl radicals, generated by Fenton reagents was measured as DMPO—OH spin adducts in ESR spectra. The ESR studies were performed at room temperature using a Bruker EMX 1273 spectrometer equipped with an ER 4119HS high sensitivity cavity and 12 kW power supply. The following instrument conditions were used: scan range, 60 G; center magnetic field, 3490 G; modulation amplitude, 1.0 G; microwave frequency, 9.86 GHz; time constant, 40.96 ms, scan time, 20.48 ms; number of scans, 50. OH radicals were generated by the Fenton reaction, and 5,5-dimethyl-1-pyrroline N-oxide (DMPO) was used for trapping hydroxyl radicals. Fifty microliters of 10 mM H2O2, 50 μl of 250 mM DMPO, 50 μl milliQ, 50 μl milliQ (control) or sample, and 50 μl 5 mM FeSO4/5 mM EDTA were mixed, and then transferred to a capillary glass tube. After 2 minutes, DMPO—OH spin adducts were measured by ESR. Quantification of the spectra was performed by peak integration using the WIN-EPR spectrum manipulation program.
Electron spin resonance (ESR) studies were performed at room temperature using a Bruker EMX 1273 spectrometer equipped with an ER 4119HS high sensitivity cavity and 12 kW power supply. The following instrument conditions were used: scan range, 60 G; center magnetic field, 3490 G; modulation amplitude, 1.0 G; microwave frequency, 9.86 GHz; time constant, 40.96 ms, scan time, 20.48 ms; number of scans, 50. OH radicals were generated by the Fenton reaction, and 5,5-Dimethyl-1-pyrroline N-oxide (DMPO) was used for trapping hydroxyl radicals. Fifty microliters of 10 mM H2O2, 50 μl 250 mM DMPO, 50 μl milliQ, 50 μl milliQ (blanco) or sample and 50 μl 5 mM FeSO4/5 mM EDTA were mixed, transferred to a capillary glass tube and the DMPO—OH spin adducts were measured after 2 minutes by ESR. Quantification of the spectra (in arbitrary units) was performed by peak integration using the WIN-EPR spectrum manipulation program.

Nc1ncnc2c1ncn2[C@@H]1O[C@H](COP(=O)(O)OP(=O)(O)OP(=O)(O)O)[C@@H](O)[C@H]1O [ATP, Adenosine 5′-triphosphate]
effect on irradiation-induced TNFα stimulation (TNFα): completely blocked | plasma lactate dehydrogenase concentration ([1]; 24-week study period): remained stable | plasma triglyceride concentration ([1]; 24-week study period): remained stable | decreased sexual interest, compared to the control group ([1]; human, in vivo): normalization | dizziness, compared to the control group ([1]; human, in vivo): reduction | dry mouth, compared to the control group ([1]; human, in vivo): improvement | serious side effects grade 3-4 on the WHO Common Toxicity Criteria scale [2]: no serious side effects | effect on LPS+PHA-induced TNF-α release (TNF-α; 1 or 10 mM H2O2): significantly inhibited | effect on TNF-α release (TNF-α; ATP below 100 μM, 1 or 10 mM H2O2): did not affect | inhibition at 300 µM (TNF-α; Homo sapiens, 300 μM ATP, 1 or 10 mM H2O2, LPS-PHA, read-out: inhibition of TNF-α release): ~50% | effect on H2O2 formation [3]: increase | effect on DMPO—OH adduct formation ([3]; macrophages incubated with LPS): inhibited | effect on LPS+PHA-induced IL-6 release (IL-6 [4]): No effect; also recorded: not influenced | body weight ([5]; phase I/II, 2 to 3 intravenous courses of 96 hours): stabilisation | average weight gain ([5]; phase II, after 4 ATP courses): 1.3 kg | effect on LPS+PHA-induced IL-6 release (IL-6 [6]): no effect; also recorded: not influenced | effect on DMPO—OH spin adduct formation ([7]; 100 μM): significant inhibition | inhibition of the DMPO—OH spin adduct formation ([7]; highest concentration used (range 0.1 mM-10 mM)): 80% and ≈ 80% | effect on DMPO—OH spin adduct formation vs control (buffer) ([7]; representative ESR spectra, FIG. 1): strongly inhibited
